Source: patent US8450308B2 (Vitae Pharmaceuticals, Inc., priority 2008, dated 2013)
Read-outs that look alike come from different tables or passages of the source.

Experiments:
[1] = BACE cell assay: soluble Amyloid Beta 1-40 (Aβ 1-40) in culture media of H4-APPsw cells; format: cell-based
[2] = molecular target: T1, truncated human beta-secretase (residues 1-458, His6-tagged at the C-terminus) (Homo sapiens, UniProt P56817); assay: BACE fluorescence quench assay; format: biochemical; settings: in vitro enzyme activity, BACE fluorescence assay, pH 4.5; read-out: IC50
T1 construct: truncated human beta-secretase (residues 1-458, His6-tagged at the C-terminus); His6 (C); made in house; host or cells: insect cells D. melanogaster S2 (baculovirus expression system (so in the source))

[3] = in vitro cell activity, H4-APPsw cells, secreted Aβ 1-40, overnight treatment, read-out: IC50

T1 sequence (P56817 22-458): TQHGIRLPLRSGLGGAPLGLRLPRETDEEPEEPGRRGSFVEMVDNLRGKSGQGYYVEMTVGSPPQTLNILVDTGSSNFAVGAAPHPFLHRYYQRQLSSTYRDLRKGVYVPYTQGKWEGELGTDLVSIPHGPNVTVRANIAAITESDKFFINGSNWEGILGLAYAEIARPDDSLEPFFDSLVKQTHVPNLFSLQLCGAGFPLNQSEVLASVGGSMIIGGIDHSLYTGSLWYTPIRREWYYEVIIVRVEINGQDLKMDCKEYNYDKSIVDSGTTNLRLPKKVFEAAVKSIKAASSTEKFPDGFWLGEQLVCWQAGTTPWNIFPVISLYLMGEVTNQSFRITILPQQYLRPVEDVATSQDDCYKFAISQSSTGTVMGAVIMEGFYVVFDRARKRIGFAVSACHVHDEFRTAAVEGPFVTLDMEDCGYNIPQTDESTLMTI

Row | SMILES | IC50 [1, 3] | IC50 [2] | IC50 [1]
1 | CN1OC2(C[C@H]([C@@H]3CCOC(C)(C)C3)Oc3ccc(-c4cccc(C#N)c4F)cc32)N=C1N (stereo partly drawn) [Compound 306] | 1 to 5 µM | 0.1 to 0.5 µM | 
2 | CN1OC2(CC3(CCCc4ccccc4C3)Oc3ccc(C#CC(C)(C)C)cc32)N=C1N (stereo not drawn) [Compound 308] | 1 to 5 µM | 0.1 to 0.5 µM | 
3 | CN1OC2(CC3(CCCc4ccccc4C3)Oc3ccc(C#CC4CCCC4)cc32)N=C1N (stereo not drawn) [Compound 317] | 1 to 5 µM | 0.1 to 0.5 µM | 
4 | CN1OC2(CC3(CCCc4ncccc43)Oc3ccc(-c4cccc(C#N)c4)cc32)N=C1N (stereo not drawn) [Compound 320] | 1 to 5 µM | 0.1 to 0.5 µM | 
5 | CC1CC[C@]2(CO1)C[C@]1(N=C(N)N(C)O1)c1cc(-c3ccc(F)c(Cl)c3)ccc1O2 (stereo partly drawn) [Compound 330] | 1 to 5 µM | 0.1 to 0.5 µM | 
6 | CN1O[C@@]2(C[C@H](C3CCOc4ccccc43)Oc3ccc(-c4cccc(C#N)c4)cc32)N=C1N (stereo partly drawn) [Compound 331] | 5 to 10 µM | 0.1 to 0.5 µM | 
7 | CN1C(=O)C2(CC3(CCCOC3)Oc3ccc(-c4cccc(C(F)(F)F)c4)cc32)N=C1N (stereo not drawn) [Compound 338] | 1 to 5 µM | 0.1 to 0.5 µM | 
8 | CN1OC2(CC3(CCCc4ccccc4C3)Oc3ccc(-c4ccc5cc[nH]c5c4)cc32)N=C1N (stereo not drawn) [Compound 352] | 1 to 5 µM | 0.5 to 1 µM | 
9 | CN1OC2(CC3(CCN(c4ncccn4)CC3)Oc3ccc(-c4cccc(C#N)c4)cc32)N=C1N (stereo not drawn) [Compound 353] | 10 to 50 µM | 0.5 to 1 µM | 
10 | CN1OC2(CC3(CCCN(c4ccccc4)C3)Oc3ccc(-c4cccc(C#N)c4)cc32)N=C1N (stereo not drawn) [Compound 355] | 5 to 10 µM | 0.5 to 1 µM | 
11 | CN1OC2(CC3(CCCc4ccccc43)Oc3ccc(-c4cc(F)cc(F)c4)cc32)N=C1N (stereo not drawn) [Compound 402] |  | 1 to 5 µM | 10 to 50 µM
12 | Cc1cc2c(cc1-c1cccc(C#N)c1)C1(CC3(CCCOC3)O2)N=C(N)N(C)O1 (stereo not drawn) [Compound 432, 3-(3″-amino-2″,7-dimethyl-2″H-spiro[spiro[chroman-2,1′-(3-oxacyclohexane)]-4,5′-[1,2,4]oxadiazole]-6-yl)benzonitrile] | 10 to 50 µM | 5 to 10 µM | 

More lines, main results first:

Row | IC50 [1, 3] | IC50 [2] | SMILES | IC50 [1]
13 | 0.5 to 1 µM | 0.1 to 0.5 µM | COc1ccc2c(c1)CCC[C@@]1(C2)C[C@@]2(N=C(N)N(C)O2)c2cc(-c3cccc(C#N)c3)ccc2O1 [Compound 311] | 
14 | 1 to 5 µM | 0.1 to 0.5 µM | CN1OC2(CC3(CCC(c4ccccc4)CC3)Oc3ccc(-c4cccc(C#N)c4)cc32)N=C1N (stereo not drawn) [Compound 313] | 
15 | 0.5 to 1 µM | 0.1 to 0.5 µM | CN1C(=O)C2(CC3(CCCOC3)Oc3ccc(-c4cc(F)cc(F)c4)cc32)N=C1N (stereo not drawn) [Compound 314] | 
16 | 5 to 10 µM | 0.1 to 0.5 µM | CN1OC2(CC3(CCc4ccccc4C3)Oc3ccc(-c4cccc(C#N)c4)cc32)N=C1N (stereo not drawn) [Compound 324] | 
17 | 1 to 5 µM | 0.1 to 0.5 µM | COc1cc(OC)cc(-c2ccc3c(c2)[C@]2(C[C@@]4(CCCOC4)O3)N=C(N)N(C)C2=O)c1 [Compound 333] | 
18 | 5 to 10 µM | 0.1 to 0.5 µM | CN1OC2(C[C@H](C34CCC(CC3)OC4)Oc3ccc(-c4cccc(C#N)c4)cc32)N=C1N (stereo partly drawn) [Compound 345] | 
19 | 5 to 10 µM | 0.5 to 1 µM | CN1O[C@]2(C[C@@H]([C@H]3CCCOC3)Oc3ccc(-c4cc(F)cc(F)c4)cc32)N=C1N [Compound 348] | 
20 | 1 to 5 µM | 0.5 to 1 µM | CN1OC2(CC3(CCCc4ccccc4C3)Oc3ccc(Br)cc32)N=C1N (stereo not drawn) [Compound 349] | 
21 | 5 to 10 µM | 0.5 to 1 µM | COc1cccc2c1CCCC1(C2)CC2(N=C(N)N(C)O2)c2cc(Br)ccc2O1 (stereo not drawn) [Compound 373] | 
